In patent US11806428B2 (HARM REDUCTION THERAPEUTICS, INC., priority 2011, dated 2023):

What was measured:
[1] = Safety assessment (adverse events, clinical laboratory results, vital signs, ECGs) in the 4-way crossover study; assay type: in vivo, human
[2] = Prediction of naloxone plasma concentrations with Excel: non-compartmental analysis on mean profiles scaled to the proposed doses; set-up: species or system human
[3] = Prediction of naloxone plasma concentrations with WinNonlin Modeling: compartmental pharmacokinetic model and simulation; set-up: species or system human; conditions: 36 h
Experimental: The corresponding C max and AUCt-values are as follows (for the total time period of 36 h): […]

[4] = intranasal administration
[5] = oral administration; cited from earlier work
clinical = conditions: both, human, plasma
[6] = another subject, Day 44, normal before study drug, rated possibly related
[7] = predicted for 0.4 mg IV, based on 1 mg IV data excluding the outlying subject
[8] = predicted for 0.4 mg IV, based on 1 mg IV data, all subjects
[9] = predicted for 1.2 mg IN, based on 8 mg IN data
[10] = predicted for 1.2 mg IN, based on 16 mg IN data
[11] = predicted for 1.6 mg IN, based on 8 mg IN data
[12] = predicted for 1.6 mg IN, based on 16 mg IN data

SMILES: C=CCN1CC[C@]23c4c5ccc(O)c4O[C@H]2C(=O)CC[C@@]3(O)[C@H]1C5 [naloxone]
- treatment-emergent adverse events (TEAEs) ([1]; 1 mg intravenous): 4 TEAEs
- treatment-emergent adverse events (TEAEs) ([1]; 8 mg intranasal): 3 TEAEs
- treatment-emergent adverse events (TEAEs) ([1]; 16 mg intranasal): 5 TEAEs
- treatment-emergent adverse events (TEAEs) ([1]; 16 mg sublingual): 1 TEAE
- changes in ECG ([1]; all treatments): No clinically relevant changes in ECG occurred
- deaths, serious adverse events, other significant adverse events ([1]; all treatments): no deaths, serious adverse events, or other significant adverse events
- markedly abnormal change in blood pressure ([1]; all treatments): one subject
- markedly abnormal changes in pulse rate ([1]; all treatments): Three subjects
- overall trend in abnormal vital sign changes ([1]; all treatments): No overall trend in abnormal vital sign changes was observed
- markedly abnormal high SGPT value [1, 6]: 371 U/l
- markedly abnormal high total bilirubin value [1, 6]: 39.33 µmol/L
- markedly abnormal low potassium value [1, 6]: 3.3 mmol/L
- TEAEs of vasovagal attack ([1]; intranasal application (one after 8 mg, one after 16 mg)): 2 subjects
- TEAEs of vasovagal attack ([1]; intravenous bolus 1 mg): 1 subject
- markedly abnormal high triglyceride value ([1]; one subject, Day 44, 4.189 mmol/l on Day -9 before study drug): 8.355 mmol/L
- AUCt [2, 7]: 3.8122 ng·h/mL
- Cmax [2, 7]: 2.8817 ng/mL
- AUCt [2, 8]: 4.5789 ng·h/mL
- Cmax [2, 8]: 4.7352 ng/mL
- AUCt [2, 9]: 3.1596 ng·h/mL
- Cmax [2, 9]: 1.5352 ng/mL
- AUCt [2, 10]: 2.585 ng·h/mL
- Cmax [2, 10]: 1.0525 ng/mL
- AUCt [2, 11]: 4.2128 ng·h/mL
- Cmax [2, 11]: 2.0469 ng/mL
- AUCt [2, 12]: 3.4467 ng·h/mL
- Cmax [2, 12]: 1.4034 ng/mL
- AUCt [3, 9]: 2.8762 ng·h/mL
- Cmax [3, 9]: 1.5995 ng/mL
- AUCt [3, 10]: 2.1631 ng·h/mL
- Cmax [3, 10]: 0.8935 ng/mL
- AUCt [3, 11]: 3.835 ng·h/mL
- Cmax [3, 11]: 2.1326 ng/mL
- AUCt [3, 12]: 2.8841 ng·h/mL
- Cmax [3, 12]: 1.1913 ng/mL
- peak plasma concentrations attained as early as (time after dosing) ([4]; earliest): 6 min
- time to peak plasma concentrations, median ([4]; median): 18 min
- oral bioavailability [5]: < 3%
- bioavailability (clinical; other: intranasal, 8 mg): 32%
- bioavailability (clinical; other: intranasal, 16 mg): 27%
- bioavailability (clinical; other: sublingual, 16 mg): ~2%
